Experimental data taken from ChEMBL document CHEMBL3390844, “Development of substituted 7-phenyl-4-aminobenzothieno[3,2-d] pyrimidines as potent LIMK1 inhibitors” (Medchemcomm, 2011).
Values after ≈ are worked out from the molar mass of the structure shown.

How the values were obtained:
[1] = Solubility of the compound in phosphate buffer at pH 6.5 by nephelometry; assay type: physicochemical
CYP1A2 = target: T1, CYP1A2 (Homo sapiens, UniProt P05177); test: Inhibition of CYP1A2 in human liver microsomes assessed as reduction in apparent rate of formation of metabolites using phenacetin as substrate at 20 uM by LC-MS analysis; assay type: ADME; settings: probe phenacetin
T1 sequence (P05177 whole entry): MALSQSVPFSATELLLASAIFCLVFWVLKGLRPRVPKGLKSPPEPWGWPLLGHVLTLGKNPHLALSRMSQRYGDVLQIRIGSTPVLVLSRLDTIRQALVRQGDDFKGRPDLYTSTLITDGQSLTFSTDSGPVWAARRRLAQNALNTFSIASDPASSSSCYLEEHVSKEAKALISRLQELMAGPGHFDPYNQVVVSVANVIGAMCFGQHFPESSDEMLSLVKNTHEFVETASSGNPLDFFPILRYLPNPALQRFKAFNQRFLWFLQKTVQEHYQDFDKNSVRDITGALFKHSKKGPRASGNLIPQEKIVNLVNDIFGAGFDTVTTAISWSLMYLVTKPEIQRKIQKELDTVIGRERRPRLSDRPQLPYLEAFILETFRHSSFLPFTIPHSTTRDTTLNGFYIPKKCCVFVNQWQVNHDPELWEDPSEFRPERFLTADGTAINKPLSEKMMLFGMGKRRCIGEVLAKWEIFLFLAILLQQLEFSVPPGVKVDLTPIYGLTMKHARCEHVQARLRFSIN

[2] = target: Serine/threonine-protein kinase PAK 4 (Homo sapiens) (UniProt O96013); test: Inhibition of PAK4 (unknown origin) at 1 uM
hERG (KCNH2) = hERG (KCNH2) (Homo sapiens, UniProt Q12809); test: Inhibition of human ERG at 10 uM by fluorescence polarization assay
[3] = target: Tyrosine-protein kinase JAK2 (Homo sapiens) (UniProt O60674); test: Inhibition of JAK2 (unknown origin) at 1 uM
[4] = target: Tyrosine-protein kinase JAK1 (Homo sapiens) (UniProt P23458); test: Inhibition of JAK1 (unknown origin) at 1 uM
[5] = Solubility of the compound in 0.01 M HCl at pH 2 by nephelometry; assay type: physicochemical
[6] = In vitro intrinsic clearance in human liver microsomes at 1 uM by LC-MS analysis; assay type: ADME; settings: read-out: CLH
[7] = target: Serine/threonine-protein kinase PAK 1 (Homo sapiens) (UniProt Q13153); test: Inhibition of PAK1 (unknown origin) at 1 uM
LIM domain kinase 2 = LIM domain kinase 2 (Homo sapiens, UniProt P53671); test: Inhibition of LIMK2 (unknown origin)
LIM domain kinase 1 [8] = target: T2, LIM domain kinase 1 (Homo sapiens, UniProt P53667); test: Inhibition of LIMK1-catalyzed cofilin phosphorylation in human ZR-75-1 cells; assay type: cell-based
[9] = Partition coefficient, log D of the compound at pH 7.4 by HPLC analysis; assay type: physicochemical; settings: octanol/water
[10] = target: Tyrosine-protein kinase Lck (Homo sapiens) (UniProt P06239); test: Inhibition of Lck (unknown origin) at 1 uM
[11] = target: Proto-oncogene tyrosine-protein kinase Src (Homo sapiens) (UniProt P12931); test: Inhibition of Src (unknown origin) at 1 uM
[12] = target: T3, Tyrosine-protein kinase JAK3 (Homo sapiens) (UniProt P52333); test: Inhibition of JAK3 (unknown origin) at 1 uM
T3 sequence (whole entry): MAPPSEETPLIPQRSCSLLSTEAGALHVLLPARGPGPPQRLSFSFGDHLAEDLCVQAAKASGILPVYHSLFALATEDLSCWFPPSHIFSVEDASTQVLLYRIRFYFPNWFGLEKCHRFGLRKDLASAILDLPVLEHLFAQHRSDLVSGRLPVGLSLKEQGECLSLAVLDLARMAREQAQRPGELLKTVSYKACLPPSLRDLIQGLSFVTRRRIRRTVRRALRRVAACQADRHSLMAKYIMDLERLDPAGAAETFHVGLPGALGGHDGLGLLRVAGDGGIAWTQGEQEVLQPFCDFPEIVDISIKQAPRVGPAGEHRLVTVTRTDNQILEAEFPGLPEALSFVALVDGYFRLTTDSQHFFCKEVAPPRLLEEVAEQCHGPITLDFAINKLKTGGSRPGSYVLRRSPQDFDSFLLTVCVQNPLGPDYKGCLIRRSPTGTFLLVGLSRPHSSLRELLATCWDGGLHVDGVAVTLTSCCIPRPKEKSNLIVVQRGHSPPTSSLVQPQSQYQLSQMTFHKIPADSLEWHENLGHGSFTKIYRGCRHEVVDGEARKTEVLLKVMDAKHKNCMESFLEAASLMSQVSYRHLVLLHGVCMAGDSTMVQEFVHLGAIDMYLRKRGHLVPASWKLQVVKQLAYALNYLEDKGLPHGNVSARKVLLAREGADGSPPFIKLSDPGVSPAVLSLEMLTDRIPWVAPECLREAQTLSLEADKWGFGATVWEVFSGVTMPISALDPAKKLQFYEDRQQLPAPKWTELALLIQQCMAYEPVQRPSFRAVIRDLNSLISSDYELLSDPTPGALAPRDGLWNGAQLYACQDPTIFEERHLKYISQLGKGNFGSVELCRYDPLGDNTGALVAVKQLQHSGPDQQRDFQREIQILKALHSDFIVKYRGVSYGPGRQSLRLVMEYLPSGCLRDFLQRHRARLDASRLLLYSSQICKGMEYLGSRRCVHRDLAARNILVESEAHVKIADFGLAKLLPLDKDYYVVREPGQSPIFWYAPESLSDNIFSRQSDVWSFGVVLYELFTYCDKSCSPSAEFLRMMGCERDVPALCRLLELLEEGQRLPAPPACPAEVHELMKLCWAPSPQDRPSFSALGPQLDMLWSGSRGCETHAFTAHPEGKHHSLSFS

LIM domain kinase 1 [13] = target: T2, LIM domain kinase 1; test: Inhibition of LIMK1 (unknown origin) assessed as ADP formation using cofilin-2 protein as substrate measured after 60 mins incubation with enzyme by Transcreener assay
CYP3A4 = CYP3A4 (Homo sapiens, UniProt P08684); test: Inhibition of CYP3A4 in human liver microsomes assessed as reduction in apparent rate of formation of metabolites using midazolam or testosterone as substrate at 20 uM by LC-MS analysis; assay type: ADME; settings: probe midazolam or testosterone
[14] = In vitro intrinsic clearance in mouse liver microsomes at 1 uM by LC-MS analysis; assay type: ADME; settings: read-out: CLH
CYP2D6 (Homo sapiens) = test: Inhibition of CYP2D6 in human liver microsomes assessed as reduction in apparent rate of formation of metabolites using dextromethorphan as substrate at 20 uM by LC-MS analysis; settings: probe dextromethorphan
[15] = target: Rho-associated protein kinase 2 (Homo sapiens) (UniProt O75116); test: Inhibition of ROCK2 (unknown origin) at 1 uM
[16] = Plasma protein binding in human by LC-MS analysis; assay type: ADME, cell-free; settings: read-out: PPB (converted)

Chain of Tyrosine-protein kinase Lck (Homo sapiens) (P06239 2-509 limits assumed): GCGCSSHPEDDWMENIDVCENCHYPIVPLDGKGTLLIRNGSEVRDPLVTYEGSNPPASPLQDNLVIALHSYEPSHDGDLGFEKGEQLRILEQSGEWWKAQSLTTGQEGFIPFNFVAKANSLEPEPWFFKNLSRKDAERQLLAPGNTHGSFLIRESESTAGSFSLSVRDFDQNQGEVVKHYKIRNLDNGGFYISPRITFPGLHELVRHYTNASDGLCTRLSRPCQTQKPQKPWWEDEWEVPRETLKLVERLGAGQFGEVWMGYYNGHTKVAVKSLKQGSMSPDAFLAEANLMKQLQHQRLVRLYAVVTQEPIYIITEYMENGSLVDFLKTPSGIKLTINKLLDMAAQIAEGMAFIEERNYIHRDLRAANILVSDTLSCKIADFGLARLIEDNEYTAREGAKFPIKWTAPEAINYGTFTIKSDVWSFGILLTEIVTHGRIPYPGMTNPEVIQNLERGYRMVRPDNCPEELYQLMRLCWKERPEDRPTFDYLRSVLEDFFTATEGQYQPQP
Chain of hERG (KCNH2) (Q12809 whole entry): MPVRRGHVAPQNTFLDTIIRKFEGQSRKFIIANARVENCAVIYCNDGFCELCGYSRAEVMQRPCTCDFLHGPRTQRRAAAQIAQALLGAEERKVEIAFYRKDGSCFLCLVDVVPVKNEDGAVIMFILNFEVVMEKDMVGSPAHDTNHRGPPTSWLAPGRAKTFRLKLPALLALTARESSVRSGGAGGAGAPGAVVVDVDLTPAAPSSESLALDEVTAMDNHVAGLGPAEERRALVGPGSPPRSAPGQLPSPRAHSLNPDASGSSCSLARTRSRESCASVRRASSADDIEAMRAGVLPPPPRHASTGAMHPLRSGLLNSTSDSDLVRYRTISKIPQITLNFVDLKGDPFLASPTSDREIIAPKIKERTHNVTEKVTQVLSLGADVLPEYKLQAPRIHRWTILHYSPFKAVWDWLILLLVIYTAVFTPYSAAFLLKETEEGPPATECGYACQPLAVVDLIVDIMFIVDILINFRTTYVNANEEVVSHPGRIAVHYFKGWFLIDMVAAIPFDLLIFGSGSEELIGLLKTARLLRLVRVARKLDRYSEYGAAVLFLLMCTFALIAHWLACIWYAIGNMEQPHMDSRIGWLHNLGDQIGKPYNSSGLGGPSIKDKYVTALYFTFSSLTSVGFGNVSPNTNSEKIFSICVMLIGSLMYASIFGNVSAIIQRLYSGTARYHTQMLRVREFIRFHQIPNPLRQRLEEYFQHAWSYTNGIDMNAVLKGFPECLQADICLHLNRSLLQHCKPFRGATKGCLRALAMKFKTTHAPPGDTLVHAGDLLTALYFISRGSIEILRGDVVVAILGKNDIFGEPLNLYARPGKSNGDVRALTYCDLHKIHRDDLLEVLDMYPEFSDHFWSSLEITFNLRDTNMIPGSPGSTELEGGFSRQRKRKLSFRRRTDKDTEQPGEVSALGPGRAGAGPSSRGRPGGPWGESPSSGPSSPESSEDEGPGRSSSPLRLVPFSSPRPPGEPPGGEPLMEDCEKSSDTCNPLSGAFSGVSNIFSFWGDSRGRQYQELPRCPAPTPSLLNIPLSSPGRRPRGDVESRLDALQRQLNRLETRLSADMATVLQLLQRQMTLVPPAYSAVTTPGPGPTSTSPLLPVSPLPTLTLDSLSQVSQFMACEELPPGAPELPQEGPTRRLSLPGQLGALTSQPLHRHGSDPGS
Chain of LIM domain kinase 2 (P53671 whole entry, the tested form may be a part): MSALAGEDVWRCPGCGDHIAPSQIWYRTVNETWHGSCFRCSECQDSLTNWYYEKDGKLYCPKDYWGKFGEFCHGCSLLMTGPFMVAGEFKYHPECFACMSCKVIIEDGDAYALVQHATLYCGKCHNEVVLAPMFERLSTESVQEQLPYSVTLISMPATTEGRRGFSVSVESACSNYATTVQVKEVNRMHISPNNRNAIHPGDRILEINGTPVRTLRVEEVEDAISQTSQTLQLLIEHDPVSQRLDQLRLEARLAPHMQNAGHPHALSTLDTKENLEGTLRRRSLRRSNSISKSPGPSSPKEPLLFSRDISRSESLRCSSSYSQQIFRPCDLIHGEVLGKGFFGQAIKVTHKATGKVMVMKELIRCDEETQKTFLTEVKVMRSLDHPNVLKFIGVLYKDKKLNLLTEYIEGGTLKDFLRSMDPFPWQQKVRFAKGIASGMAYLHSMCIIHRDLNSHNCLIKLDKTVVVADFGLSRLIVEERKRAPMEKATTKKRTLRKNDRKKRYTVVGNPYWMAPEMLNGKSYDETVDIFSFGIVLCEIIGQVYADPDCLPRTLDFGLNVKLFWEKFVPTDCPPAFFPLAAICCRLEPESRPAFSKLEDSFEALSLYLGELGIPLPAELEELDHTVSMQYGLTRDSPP
Chain of CYP3A4 (P08684 whole entry): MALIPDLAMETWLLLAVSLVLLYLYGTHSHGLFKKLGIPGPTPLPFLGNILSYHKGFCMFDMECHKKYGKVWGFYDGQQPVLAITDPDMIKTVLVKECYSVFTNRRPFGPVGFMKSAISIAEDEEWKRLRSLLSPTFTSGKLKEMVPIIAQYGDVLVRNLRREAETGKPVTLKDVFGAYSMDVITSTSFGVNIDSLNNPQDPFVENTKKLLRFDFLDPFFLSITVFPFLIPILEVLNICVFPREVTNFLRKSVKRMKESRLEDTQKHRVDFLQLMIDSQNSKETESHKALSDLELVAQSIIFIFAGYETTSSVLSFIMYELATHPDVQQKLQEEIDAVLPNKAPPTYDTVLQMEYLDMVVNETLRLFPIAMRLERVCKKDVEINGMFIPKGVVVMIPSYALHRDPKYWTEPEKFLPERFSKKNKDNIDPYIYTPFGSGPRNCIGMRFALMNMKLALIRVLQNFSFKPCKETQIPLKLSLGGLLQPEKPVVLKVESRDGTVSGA
Chain of Serine/threonine-protein kinase PAK 4 (Homo sapiens) (O96013 whole entry, looked up): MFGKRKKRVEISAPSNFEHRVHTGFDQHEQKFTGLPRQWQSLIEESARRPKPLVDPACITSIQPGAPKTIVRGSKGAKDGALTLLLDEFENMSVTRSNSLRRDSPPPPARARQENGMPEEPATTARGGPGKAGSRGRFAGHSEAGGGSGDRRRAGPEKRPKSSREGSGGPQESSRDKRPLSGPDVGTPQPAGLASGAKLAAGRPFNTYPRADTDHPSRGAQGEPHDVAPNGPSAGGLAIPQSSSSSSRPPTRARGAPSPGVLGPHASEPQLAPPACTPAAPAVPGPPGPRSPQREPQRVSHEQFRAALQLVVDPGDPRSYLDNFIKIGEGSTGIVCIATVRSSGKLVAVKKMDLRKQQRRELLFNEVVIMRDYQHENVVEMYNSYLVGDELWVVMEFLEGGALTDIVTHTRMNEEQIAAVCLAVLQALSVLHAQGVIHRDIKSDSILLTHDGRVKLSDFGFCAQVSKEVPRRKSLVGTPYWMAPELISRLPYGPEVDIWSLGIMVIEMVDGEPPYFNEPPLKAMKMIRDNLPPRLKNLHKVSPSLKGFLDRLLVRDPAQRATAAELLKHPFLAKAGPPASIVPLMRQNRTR
T2 sequence (P53667 whole entry, the tested form may be a part): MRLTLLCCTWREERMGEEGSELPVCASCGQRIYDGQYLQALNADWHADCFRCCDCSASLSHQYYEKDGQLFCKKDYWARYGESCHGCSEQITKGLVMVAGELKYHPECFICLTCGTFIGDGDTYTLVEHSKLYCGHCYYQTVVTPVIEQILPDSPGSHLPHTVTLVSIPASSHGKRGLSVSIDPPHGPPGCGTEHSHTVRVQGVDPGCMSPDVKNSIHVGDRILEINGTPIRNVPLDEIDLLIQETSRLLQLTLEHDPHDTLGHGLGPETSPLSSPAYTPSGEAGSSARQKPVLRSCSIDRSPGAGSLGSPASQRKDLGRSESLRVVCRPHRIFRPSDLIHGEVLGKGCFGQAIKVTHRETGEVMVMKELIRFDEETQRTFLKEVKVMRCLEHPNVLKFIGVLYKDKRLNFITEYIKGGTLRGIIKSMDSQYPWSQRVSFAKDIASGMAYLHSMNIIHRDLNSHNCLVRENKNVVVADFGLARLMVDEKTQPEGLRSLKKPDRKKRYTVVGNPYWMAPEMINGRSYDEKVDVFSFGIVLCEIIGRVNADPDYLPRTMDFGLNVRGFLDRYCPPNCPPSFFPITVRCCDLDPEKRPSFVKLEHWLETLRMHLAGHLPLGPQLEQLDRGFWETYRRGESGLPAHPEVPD
Chain of Proto-oncogene tyrosine-protein kinase Src (Homo sapiens) (P12931 2-536 limits assumed): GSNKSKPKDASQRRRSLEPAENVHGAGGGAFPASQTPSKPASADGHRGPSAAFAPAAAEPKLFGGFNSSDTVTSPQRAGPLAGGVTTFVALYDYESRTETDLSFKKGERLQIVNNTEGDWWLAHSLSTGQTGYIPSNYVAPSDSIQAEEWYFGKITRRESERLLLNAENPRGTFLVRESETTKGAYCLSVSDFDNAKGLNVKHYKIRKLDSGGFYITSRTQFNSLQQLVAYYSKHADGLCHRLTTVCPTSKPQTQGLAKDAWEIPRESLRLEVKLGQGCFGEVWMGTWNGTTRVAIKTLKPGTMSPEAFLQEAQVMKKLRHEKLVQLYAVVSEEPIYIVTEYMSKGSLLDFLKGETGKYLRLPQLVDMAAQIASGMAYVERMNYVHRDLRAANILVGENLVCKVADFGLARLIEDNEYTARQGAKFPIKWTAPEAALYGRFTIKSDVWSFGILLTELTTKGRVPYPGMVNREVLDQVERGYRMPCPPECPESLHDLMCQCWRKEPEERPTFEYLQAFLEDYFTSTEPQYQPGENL

Compound	solubility kinetic [1] [µg/mL]	inhibition at 20 µM (CYP1A2) [%]	inhibition [2] [%]	inhibition at 10 µM (hERG (KCNH2)) [%]	inhibition [3] [%]	inhibition [4] [%]	solubility kinetic [5] [µg/mL]	microsomal CLint at 1 µM [6] [µL/min/mg]	inhibition [7] [%]	IC50 (LIM domain kinase 2) [nM]	IC50 (LIM domain kinase 1 [8]) [nM]	logD [9]	inhibition [10] [%]	inhibition [11] [%]	inhibition [12] [%]	IC50 (LIM domain kinase 1 [13]) [nM]	inhibition at 20 µM (CYP3A4) [%]	microsomal CLint at 1 µM [14] [µL/min/mg]	inhibition at 20 µM (CYP2D6 (Homo sapiens)) [%]	inhibition [15] [%]	also measured
Nc1ncnc2c1sc1cc(-c3cccc(C(=O)NCCc4cccnc4)c3)ccc12	< 1.6	13	13	11	98	31	50 (≈ 118 µM)	116	8	133	4100	2.7	85	23	60	97	99	111	74	13	fraction unbound [16]: 0.014
Nc1ncnc2c1sc1cc(-c3cccc(NC(=O)N4CCCC4)c3)ccc12	3.1 (≈ 7.96 µM)	28	7	0	95	13	50 (≈ 128 µM)	77	0	103	2400	2.8	71	60	56	95	82	56	9	10	–
CN1CCN(C(=O)Nc2cccc(-c3ccc4c(c3)sc3c(N)ncnc34)c2)CC1	12.5 (≈ 29.9 µM)	11	0	27	88	25	> 100	165	33	157	1600	2.5	75	71	53	95	82	27	12	24	fraction unbound [16]: 0.037
